According to ChEMBL document CHEMBL1201862, “PubChem BioAssay data set” (2004):
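1) Cells in 96-well plates. 2) Compound, 48 h, 5 concentrations. 3) Linear interpolation between surrounding doses. 4) Unreached endpoint = highest concentration. Abbreviation: GI50, concentration required for 50% inhibition of growth.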 Calls of active or inactive are those of the source. No stated cut-off is given here; in the data, active = GI50 up to about 1.1 µM and inactive = higher.

Assays:
Test in all cases: growth of human tumour cells (NCI), 48 h
U-251 = test system: U-251
NCI-H23 = test system: NCI-H23
SNB-75 = test system: SNB-75
A549 = test system: A549
MCF7 = test system: MCF7
SW-620 = test system: SW-620
SF-295 = test system: SF-295
UACC-257 = test system: UACC-257
TK-10 = test system: TK-10
SK-MEL-28 = test system: SK-MEL-28
NCI-H460 = test system: NCI-H460
NCI-H226 = test system: NCI-H226
HCT-15 = test system: HCT-15
IGROV-1 = test system: IGROV-1
OVCAR-5 = test system: OVCAR-5
DU-145 = test system: DU-145
OVCAR-4 = test system: OVCAR-4
UO-31 = test system: UO-31
EKVX = test system: EKVX
A498 = test system: A498

| SMILES | GI50 (U-251) | GI50 (NCI-H23) | GI50 (SNB-75) | GI50 (A549) | GI50 (MCF7) | GI50 (SW-620) | GI50 (SF-295) | GI50 (UACC-257) | GI50 (TK-10) | GI50 (SK-MEL-28) | GI50 (NCI-H460) | GI50 (NCI-H226) | GI50 (HCT-15) [µM] | GI50 (IGROV-1) | GI50 (OVCAR-5) | GI50 (DU-145) | GI50 (OVCAR-4) | GI50 (UO-31) | GI50 (EKVX) | GI50 (A498) |
| --- | --- | --- | --- | --- | --- | --- | --- | --- | --- | --- | --- | --- | --- | --- | --- | --- | --- | --- | --- | --- |
| Cn1c2ccccc2n2c(=O)c3cc([N+](=O)[O-])ccc3c(C#N)c12 | > 100 µM (inactive) | > 100 µM (inactive) | 56.2 µM (inactive) | > 100 µM (inactive) | > 100 µM (inactive) | > 100 µM (inactive) | 83.2 µM (inactive) | > 100 µM (inactive) | > 100 µM (inactive) | > 100 µM (inactive) | > 100 µM (inactive) | > 100 µM (inactive) | > 100 | > 100 µM (inactive) | > 100 µM (inactive) | > 100 µM (inactive) | 65.6 µM (inactive) | > 100 µM (inactive) | > 100 µM (inactive) | – |
| NC(CCCCNC(=O)C(Cc1ccccc1)NC(=O)OCc1ccccc1)C(=O)NC(CCCCNC(=O)C(Cc1ccccc1)NC(=O)OCc1ccccc1)C(=O)NC(CCCCNC(=O)C(Cc1ccccc1)NC(=O)OCc1ccccc1)C(=O)NC(CCCCNC(=O)C(Cc1ccccc1)NC(=O)OCc1ccccc1)C(=O)NC(CCCCNC(=O)C(Cc1ccccc1)NC(=O)OCc1ccccc1)C(=O)NC(CCCCNC(=O)C(Cc1ccccc1)NC(=O)OCc1ccccc1)C(=O)O (stereo not drawn) | > 100 µM (inactive) | > 100 µM (inactive) | > 100 µM (inactive) | > 100 µM (inactive) | > 100 µM (inactive) | > 100 µM (inactive) | – | > 100 µM (inactive) | > 100 µM (inactive) | > 100 µM (inactive) | > 100 µM (inactive) | > 100 µM (inactive) | > 100 | > 100 µM (inactive) | > 100 µM (inactive) | > 100 µM (inactive) | > 100 µM (inactive) | > 100 µM (inactive) | – | – |
| O=P(O)(Cc1ccccc1)c1ccccc1-c1ccccc1 | 57.1 µM (inactive) | > 100 µM (inactive) | > 100 µM (inactive) | 56 µM (inactive) | > 100 µM (inactive) | > 100 µM (inactive) | > 100 µM (inactive) | > 100 µM (inactive) | > 100 µM (inactive) | > 100 µM (inactive) | 62.7 µM (inactive) | > 100 µM (inactive) | > 100 | > 100 µM (inactive) | > 100 µM (inactive) | > 100 µM (inactive) | > 100 µM (inactive) | > 100 µM (inactive) | 41.9 µM (inactive) | – |
| [N-]=[N+]=NC[C@H]1OCO[C@H](CN=[N+]=[N-])[C@H]2OCCOCCOc3ccccc3OCCOCCO[C@@H]21 | > 100 µM (inactive) | > 100 µM (inactive) | 76.4 µM (inactive) | > 100 µM (inactive) | > 100 µM (inactive) | > 100 µM (inactive) | > 100 µM (inactive) | > 100 µM (inactive) | > 100 µM (inactive) | > 100 µM (inactive) | > 100 µM (inactive) | > 100 µM (inactive) | > 100 | > 100 µM (inactive) | – | > 100 µM (inactive) | > 100 µM (inactive) | 10.1 µM (inactive) | > 100 µM (inactive) | – |
| Oc1ccccc1/C=N/c1ccc(-c2nc3ccccc3s2)cc1 | 30.9 µM (inactive) | 31.8 µM (inactive) | 36.1 µM (inactive) | 36.7 µM (inactive) | – | 41.5 µM (inactive) | 24.1 µM (inactive) | 24 µM (inactive) | 31.2 µM (inactive) | 41.7 µM (inactive) | 25 µM (inactive) | 24.8 µM (inactive) | 24.4 | 28.2 µM (inactive) | 28.3 µM (inactive) | 45.7 µM (inactive) | 30.2 µM (inactive) | 28.5 µM (inactive) | 21.3 µM (inactive) | 21.4 µM (inactive) |
| C=C1CC2CCCC12C=O (stereo not drawn) | > 10 µM (inactive) | > 10 µM (inactive) | > 10 µM (inactive) | > 10 µM (inactive) | > 10 µM (inactive) | > 10 µM (inactive) | > 10 µM (inactive) | > 10 µM (inactive) | > 10 µM (inactive) | > 10 µM (inactive) | – | – | > 10 | > 10 µM (inactive) | – | > 10 µM (inactive) | > 10 µM (inactive) | – | – | – |
| CN(CCNC(=O)c1c[nH]c2c1Cc1ccccc1-2)CCNC(=O)c1c[nH]c2c1Cc1ccccc1-2 | 18.5 µM (inactive) | 41.5 µM (inactive) | – | 43.2 µM (inactive) | 22.9 µM (inactive) | 39.4 µM (inactive) | 26.9 µM (inactive) | 43.8 µM (inactive) | 45.9 µM (inactive) | 48.5 µM (inactive) | 35.1 µM (inactive) | 24.6 µM (inactive) | 30.9 | 27.9 µM (inactive) | > 100 µM (inactive) | 60.1 µM (inactive) | 59.3 µM (inactive) | 28.6 µM (inactive) | 37.1 µM (inactive) | – |
| NS(=O)(=O)c1ccc(NNc2c3ccccc3nc3c(C(=O)Nc4ccc(S(=O)(=O)Nc5ncccn5)cc4)cccc23)cc1 | > 25 µM (inactive) | > 25 µM (inactive) | 20.2 µM (inactive) | > 25 µM (inactive) | > 25 µM (inactive) | > 25 µM (inactive) | > 25 µM (inactive) | > 25 µM (inactive) | > 25 µM (inactive) | 10.1 µM (inactive) | > 25 µM (inactive) | > 25 µM (inactive) | > 25 | > 25 µM (inactive) | > 25 µM (inactive) | > 25 µM (inactive) | > 25 µM (inactive) | > 25 µM (inactive) | > 25 µM (inactive) | – |
| NCCC1([N+](=O)[O-])C=CN=CC1 (stereo not drawn) | > 100 µM (inactive) | > 100 µM (inactive) | 6.98 µM (inactive) | > 100 µM (inactive) | – | > 100 µM (inactive) | > 100 µM (inactive) | > 100 µM (inactive) | > 100 µM (inactive) | > 100 µM (inactive) | > 100 µM (inactive) | > 100 µM (inactive) | > 100 | > 100 µM (inactive) | > 100 µM (inactive) | > 100 µM (inactive) | > 100 µM (inactive) | > 100 µM (inactive) | > 100 µM (inactive) | > 100 µM (inactive) |
| Cc1ccc(S(=O)(=O)NC(C(=O)O)C(C)C)cc1 (stereo not drawn) | > 100 µM (inactive) | > 100 µM (inactive) | > 100 µM (inactive) | > 100 µM (inactive) | – | > 100 µM (inactive) | > 100 µM (inactive) | > 100 µM (inactive) | > 100 µM (inactive) | > 100 µM (inactive) | > 100 µM (inactive) | > 100 µM (inactive) | > 100 | > 100 µM (inactive) | > 100 µM (inactive) | > 100 µM (inactive) | > 100 µM (inactive) | > 100 µM (inactive) | > 100 µM (inactive) | > 100 µM (inactive) |
| Nc1ccc(Cn2ccc3c4c(N)nc(N)nc4ccc32)cc1 | < 0.01 µM (active) | < 0.01 µM (active) | 0.804 µM (active) | < 0.01 µM (active) | 0.0351 µM (active) | < 0.01 µM (active) | < 0.01 µM (active) | – | 1.58 µM (inactive) | 0.128 µM (active) | < 0.01 µM (active) | 4.27 µM (inactive) | < 0.01 | < 0.01 µM (active) | 0.0224 µM (active) | 0.0123 µM (active) | 1.54 µM (inactive) | 0.406 µM (active) | 6.47 µM (inactive) | – |
| C#CCNC(CS)C(=O)O (stereo not drawn) | > 100 µM (inactive) | > 100 µM (inactive) | > 100 µM (inactive) | > 100 µM (inactive) | – | > 100 µM (inactive) | > 100 µM (inactive) | > 100 µM (inactive) | > 100 µM (inactive) | > 100 µM (inactive) | > 100 µM (inactive) | > 100 µM (inactive) | > 100 | > 100 µM (inactive) | > 100 µM (inactive) | > 100 µM (inactive) | > 100 µM (inactive) | > 100 µM (inactive) | > 100 µM (inactive) | > 100 µM (inactive) |
| CCC(C)[C@@H](NC1=C(Cl)C(=O)c2c(O)ccc(O)c2C1=O)C(=O)OC (stereo partly drawn) | 3.78 µM (inactive) | 2.07 µM (inactive) | 7.26 µM (inactive) | 3.89 µM (inactive) | 3.61 µM (inactive) | 4.46 µM (inactive) | 4.92 µM (inactive) | 2.18 µM (inactive) | > 10 µM (inactive) | – | 2.64 µM (inactive) | 4.14 µM (inactive) | 2.94 | 3.95 µM (inactive) | 5.12 µM (inactive) | 5.19 µM (inactive) | 2.84 µM (inactive) | – | 9.23 µM (inactive) | – |
| CCCC1CCC(=C2C(=O)CCC2=O)O1 (stereo not drawn) | > 100 µM (inactive) | > 100 µM (inactive) | 4.91 µM (inactive) | > 100 µM (inactive) | > 100 µM (inactive) | > 100 µM (inactive) | > 100 µM (inactive) | > 100 µM (inactive) | > 100 µM (inactive) | > 100 µM (inactive) | > 100 µM (inactive) | > 100 µM (inactive) | > 100 | > 100 µM (inactive) | > 100 µM (inactive) | > 100 µM (inactive) | > 100 µM (inactive) | > 100 µM (inactive) | > 100 µM (inactive) | – |
| O=CN/C=C/c1ccccc1O | > 100 µM (inactive) | > 100 µM (inactive) | > 100 µM (inactive) | > 100 µM (inactive) | – | > 100 µM (inactive) | > 100 µM (inactive) | > 100 µM (inactive) | > 100 µM (inactive) | > 100 µM (inactive) | > 100 µM (inactive) | > 100 µM (inactive) | > 100 | > 100 µM (inactive) | > 100 µM (inactive) | > 100 µM (inactive) | > 100 µM (inactive) | > 100 µM (inactive) | > 100 µM (inactive) | > 100 µM (inactive) |
